Among the data in patent US8063048B2, “Acetylenyl-pyrazolo-pyrimidine derivatives” (Hoffmann-La Roche Inc., priority 2005, dated 2011) are Ki and melting point values, retold here.

In one series the target is T1, mGlu2 receptor (Rattus norvegicus, UniProt P31421).
T1 construct: expressed in transfected cells; membranes prepared
The series is described as follows: [3H]-LY354740 binding on mGlu2 transfected CHO cell membranes. To be noted: inhibition of 10 nM [3H]-LY354740 binding, membranes of CHO cells transfected with rat mGlu2, room temperature, 1 hour. The source says:
[^3H]-LY354740 Binding on mGlu2 Transfected CHO Cell Membranes. Transfection and Cell Culture
cDNA encoding the rat mGlu2 receptor protein in pBluescript II was subcloned into the eukaryotic expression vector pcDNA I-amp from Invitrogen Ltd (Paisley, UK). This vector construct (pcD1mGR^2) was co-transfected with a psvNeo plasmid encoding the gene for neomycin resistance, into CHO cells by a modified calcium phosphate method described by Chen & Okayama (1988). The cells were maintained in Dulbecco's Modified Eagle medium with reduced L-glutamine (2 mM final concentration) and 10% dialyzed fetal calf serum from Gibco-Invitrogen (Carlsbad, Calif., USA). Selection was made in the presence of G-418 (1000 ug/mL final) and MCPG[…]. Clones were identified by reverse transcription of 5 μg total RNA, followed by PCR using mGlu2 receptor specific primers 5′-[…]-3′ and 5′-[…]-3′ in 60 mM Tris HCl (pH 10), 15 mM (NH4)2SO4, 2 mM MgCl2, 25 units/mLTaq Polymerase with 30 cycles annealing at 60° C. for 1 min., extention at 72° C. for 30 s, and 1 min. 95° C. denaturation.
Cells, cultured as above, were harvested and washed three times with cold PBS and frozen at −80° C. The pellet was resuspended in cold 20 mM HEPES-NaOH buffer containing 10 mM EDTA (pH 7.4) and homogenized with a polytron (Kinematica, AG, Littau, Switzerland) for 10 s at 10 000 rpm. After centrifugation for 30 min. at 4° C., the pellet was washed once with the same buffer, and once with cold 20 mM HEPES-NaOH buffer containing 0.1 mM EDTA, (pH 7.4). Protein content was measured using the micro BCA method from Pierce-Perbio (Rockford, Ill., USA) using bovine serum albumin as standard.
After thawing, the membranes were resuspended in cold 50 mM Tris-HCl buffer containing 2 mM MgCl2 (pH 7) (binding buffer). The final concentration of the membranes in the assays was 25 μg protein/ml. Inhibition experiments were performed with membranes incubated with 10 nM [^3H]-LY354740 at room temperature, for 1 hour, in presence of various concentrations of the compound to be tested. Following the incubations, membranes were filtered onto Whatmann GF/B glass fiber filters and washed 5 times with cold binding buffer. Non specific binding was measured in the presence of 10 μM DCG IV. After transfer of the filters into plastic vials containing 10 mL of Ultima-gold scintillation fluid from Perkin-Elmer (Boston, Mass., USA), the radioactivity was measured by liquid scintillation in a Tri-Carb 2500 TR counter (Packard, Zürich, Switzerland).
The inhibition curves were fitted with a four parameter logistic equation giving IC50 values, and Hill coefficients.

T1 sequence (P31421 19-872): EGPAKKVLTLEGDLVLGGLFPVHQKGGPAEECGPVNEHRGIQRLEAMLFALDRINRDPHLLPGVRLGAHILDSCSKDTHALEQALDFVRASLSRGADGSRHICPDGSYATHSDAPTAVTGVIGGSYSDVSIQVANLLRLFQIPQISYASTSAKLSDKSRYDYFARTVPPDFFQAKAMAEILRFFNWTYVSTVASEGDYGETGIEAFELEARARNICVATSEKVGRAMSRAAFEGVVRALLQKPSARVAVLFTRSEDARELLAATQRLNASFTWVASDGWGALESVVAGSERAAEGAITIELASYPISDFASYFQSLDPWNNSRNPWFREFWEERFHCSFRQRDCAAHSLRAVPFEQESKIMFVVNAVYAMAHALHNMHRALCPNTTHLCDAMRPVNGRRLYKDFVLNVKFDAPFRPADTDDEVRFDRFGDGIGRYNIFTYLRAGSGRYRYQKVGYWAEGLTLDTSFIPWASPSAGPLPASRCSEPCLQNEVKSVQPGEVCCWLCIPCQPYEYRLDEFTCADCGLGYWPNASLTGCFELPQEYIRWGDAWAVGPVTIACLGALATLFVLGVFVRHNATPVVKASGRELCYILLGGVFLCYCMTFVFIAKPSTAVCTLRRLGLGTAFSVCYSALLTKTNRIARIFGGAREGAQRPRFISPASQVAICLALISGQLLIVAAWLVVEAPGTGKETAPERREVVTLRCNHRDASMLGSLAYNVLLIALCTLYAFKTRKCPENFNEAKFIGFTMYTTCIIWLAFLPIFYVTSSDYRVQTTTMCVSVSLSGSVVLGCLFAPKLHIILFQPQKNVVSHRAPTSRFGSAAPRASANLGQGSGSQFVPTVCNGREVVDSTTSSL

Broadly, the Ki is a dissociation constant, usually derived from enzyme kinetics or from competition with a known ligand. A word on the melting point: it is the temperature of the solid-liquid transition. Consider `CN1CCN(S(=O)(=O)c2ccc(C#Cc3cnn4c(C(F)(F)F)cc(-c5ccc(C(F)(F)F)cc5)nc34)s2)CC1` [Example 157, 3-[5-(4-Methyl-piperazine-1-sulfonyl)-thiophen-2-ylethynyl]-7-trifluoromethyl-5-(4-trifluoromethyl-phenyl)-pyrazolo[1,5-a]pyrimidine], for which the melting point was determined as 250 °C. At mGlu2 receptor, this compound registered a Ki of 8 nM.

In turn, `NS(=O)(=O)c1ccc(C#Cc2cnn3c(C4CC4)cc(-c4ccc(Cl)c(Cl)c4)nc23)s1` [Example 86, 5-[7-Cyclopropyl-5-(3,4-dichloro-phenyl)-pyrazolo[1,5-a]pyrimidin-3-ylethynyl]-thiophene-2-sulfonic acid amide] had a melting point of 213 to 214 °C. Moreover, the Ki on mGlu2 receptor was 3 nM.

`CC(CO)(CO)NS(=O)(=O)c1cncc(C#Cc2cnn3c(C(F)(F)F)cc(-c4ccc(Cl)c(Cl)c4)nc23)c1` [Example 91, 5-[5-(3,4-Dichloro-phenyl)-7-trifluoromethyl-pyrazolo[1,5-a]pyrimidin-3-ylethynyl]-pyridine-3-sulfonic acid (2-hydroxy-1-hydroxymethyl-1-methyl-ethyl)-amide]: the Ki on mGlu2 receptor came out at 4 nM.

In turn, `NS(=O)(=O)c1ccc(C#Cc2ncn3c(C(F)(F)F)cc(-c4ccc(C(F)(F)F)cc4)nc23)cc1` [Example 178, 4-[4-Trifluoromethyl-2-(4-trifluoromethyl-phenyl)-imidazo[1,5-a]pyrimidin-8-ylethynyl]-benzenesulfonamide] returned a melting point of 290 °C. On mGlu2 receptor, this compound returned a Ki of 8 nM.

The compound `NS(=O)(=O)c1cccc(C#Cc2cnn3c(C(F)(F)F)cc(-c4ccc(C(F)(F)F)cc4)nc23)c1` [Example 1, 3-[7-Trifluoromethyl-5-(4-trifluoromethyl-phenyl)-pyrazolo[1,5-a]pyrimidin-3-ylethynyl]-benzenesulfonamide] registered a melting point of 243 °C. Also, on mGlu2 receptor, the Ki amounted to 2 nM.

`NS(=O)(=O)c1ccc(C#Cc2ncn3c(C(F)(F)F)cc(-c4ccc(C(F)(F)F)cc4)nc23)s1` [Example 179, 5-[4-Trifluoromethyl-2-(4-trifluoromethyl-phenyl)-imidazo[1,5-a]pyrimidin-8-ylethynyl]-thiophene-2-sulfonic acid amide]: the melting point is 255 °C. Moreover, the affinity on mGlu2 receptor corresponds to a Ki of 1 nM.

For `NS(=O)(=O)c1cc(C#Cc2cnc3c(C(F)(F)F)cc(-c4ccc(C(F)(F)F)cc4)cn23)c(F)cc1F` [Example 180, 2,4-Difluoro-5-[8-trifluoromethyl-6-(4-trifluoromethyl-phenyl)-imidazo[1,2-a]pyridin-3-ylethynyl]-benzenesulfonamide], the melting point lay in the range of 306 to 307 °C. At mGlu2 receptor, this compound had a Ki of 9 nM.
